Experimental data from patent publication US7482345B2, “P38 kinase inhibiting agents” (priority 2005, dated 2009).

Molecular target: T1, Murine p38 (Mus musculus, UniProt P47811)
T1 construct: made in house; host or cells: Drosophila S2 cells (p38); E. coli (GST-ATF2)
Test: p38 kinase assay
Type: biochemical
Conditions: illustrative Examples; table does not say which of 'the above assays'
Experimental: Murine p38 containing the FLAG epitope tag was expressed in Drosophila S2 cells under transcriptional control of a copper-inducible metallothionein promoter. Expression of recombinant p38 was induced by treating transfected cells with 1 mM CuSO4 for 4 hours. To generate active recombinant murine p38, CuSO4-treated S2 cells were stimulated 10 minutes prior to harvest with 400 mM NaCl, 2 mM Na3VO4, and 100 μg/L okadaic acid. Cell pellets were washed with phosphate-buffered saline, 2 mM Na3VO4, and lysed in 20 mM Tris HCl, pH 7.5, 120 mM NaCl, 1% Triton X-100, 2 mM EDTA, 20 mM NaF, 4 mM Na3VO4, 2 mM Prefabloc SC (Boehringer Mannheim). Cell lysates were centrifuged for 10 min at 13,000×g, and activated, recombinant murine p38 was immunoaffinity purified from the lysate by column chromatography through anti-FLAG M2 resin (Kodak) that had been equilibrated with lysis buffer. After loading the extract the resin was washed with 10 column volumes of lysis buffer, 10 column volumes buffer A (10 mM Tris HCl, pH 7.5, 500 mM NaCl, 20% glycerol) and 10 column volumes of buffer B (10 mM Tris HCl pH 7.5, 150 mM NaCl, 20% glycerol). The fusion protein was eluted in buffer B containing 100 μg/mL FLAG peptide (Kodak).
The N-terminal 115 amino acids of ATF-2 was expressed in E. coli as a fusion protein with glutathione-S-transferase. The fusion protein was purified over glutathione agarose according to standard procedures (Pharmacia).
p38 kinase assays were performed in a reaction volume of 100 μL in a 96-well plate, at 30° for […] under the following conditions: 25 mM Hepes, pH 7.4, 10 mMmgCl2, 20 mM β-glycerolphosphate, 2 mM DTT, 5 μM ATP, 10 μCi [γ-33P]-ATP and ˜2 μM GST-ATF2. Serial dilutions of compounds were added to each reaction in 2 μL DMSO. 2 μL of DMSO was added to the last row of each reaction plate as the no inhibitor control for each inhibitor titration. The reaction was terminated with an equal volume of a stop solution containing 100 mM EDTA and 15 mM sodium pyrophosphate. PVDF filter plates (MAIPNOB50, Millipore) were pre-wet with methanol and washed with the stop solution. 50 μL aliquots from a single reaction were applied to the filter under vacuum, and the filter was washed twice with 75 mM phosphoric acid. The filter plates were counted in a scintillation counter (Top Count, Packard) and the percent inhibition at each compound concentration is determined.

T1 sequence (P47811 whole entry): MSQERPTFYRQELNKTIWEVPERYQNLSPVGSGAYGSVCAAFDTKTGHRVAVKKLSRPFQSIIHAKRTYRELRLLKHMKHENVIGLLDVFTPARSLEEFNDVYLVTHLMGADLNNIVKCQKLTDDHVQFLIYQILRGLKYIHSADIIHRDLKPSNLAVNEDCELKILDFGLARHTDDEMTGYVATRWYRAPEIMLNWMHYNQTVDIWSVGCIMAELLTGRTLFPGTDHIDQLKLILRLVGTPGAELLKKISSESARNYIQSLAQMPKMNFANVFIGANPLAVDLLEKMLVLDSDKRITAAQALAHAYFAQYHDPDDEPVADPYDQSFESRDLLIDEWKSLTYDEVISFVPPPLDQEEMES

SMILES	IC50
COc1ccc(C(=O)N2CCCC2)cc1-c1c(=O)ccn2nc(Oc3ccc(F)cc3F)ccc12 [Example 4, 2-(2,4-difluorophenoxy)-5-[2-methoxy-5-(pyrrolidin-1-ylcarbonyl)phenyl]-6H-pyrido[1,2-b]pyridazin-6-one]	22 nM
CCc1ccc(C(=O)N2CCCC2)cc1-c1c(=O)ccn2nc(Oc3ccc(F)cc3F)ccc12 [Example 14, 2-(2,4-difluorophenoxy)-5-[2-ethyl-5-(pyrrolidin-1-ylcarbonyl)phenyl]-6H-pyrido[1,2-b]pyridazin-6-one]	59 nM
O=c1ccn2nc(NCc3ccc(F)cc3F)ccc2c1-c1c(F)cccc1F [Example 49]	710 nM

Next, values leading:

IC50	SMILES
320 nM	O=c1ccn2cc(Sc3ccc(F)cc3F)ccc2c1-c1c(F)cccc1F [Example 52, 1-(2,6-difluorophenyl)-7-[(2,4-difluorophenyl)thio]-2H-quinolizin-2-one]
93 nM	O=c1ccn2cc(Cc3ccc(F)cc3F)ccc2c1-c1c(F)cccc1F [Example 53, 7-(2,4-difluorobenzyl)-1-(2,6-difluorophenyl)-2H-quinolizin-2-one]
